Data reported in ChEMBL document CHEMBL3508693 (2016).
One block for each compound: values may come before it.

How the values were obtained:
[1] = % aliskiren hemifumarate recovered as M9 in urine following single oral dose of 300 mg [14C]SPP100 studied in healthy men; assay type: ADME, organism-based; conditions: human, in vivo
[2] = % aliskiren hemifumarate recovered as M9 in faeces following single oral dose of 300 mg [14C]SPP100 studied in healthy men; assay type: ADME, organism-based, Feces; conditions: human, in vivo
[3] = % aliskiren hemifumarate recovered as M9 in urine and faeces following single oral dose of 300 mg [14C]SPP100 studied in healthy men; assay type: ADME, organism-based, Urine/Feces; conditions: human, in vivo
[4] = % of radioactivity recovered as M9 from M2 in plasma following oral administration of [14C] aliskiren hemifumarate at 100 mg.Kg-1 level in rat; assay type: ADME, organism-based, Albino HAN:WIST; conditions: in vivo
[5] = % of radioactivity recovered as M9 from M2 in urine following oral administration of [14C] aliskiren hemifumarate at 100 mg.Kg-1 level in rat; assay type: ADME, organism-based, Albino HAN:WIST; conditions: in vivo
[6] = % of radioactivity recovered as M9 from M2 in faeces following oral administration of [14C] aliskiren hemifumarate at 100 mg.Kg-1 level in rat; assay type: ADME, organism-based, Albino HAN:WIST, Feces; conditions: in vivo
[7] = % of radioactivity recovered as M9 from M2 in plasma following intravenous administration of [14C] aliskiren hemifumarate at 10 mg.Kg-1 level in rat; assay type: ADME, organism-based, Albino HAN:WIST; conditions: in vivo
[8] = % of radioactivity recovered as M9 from M2 in urine following intravenous administration of [14C] aliskiren hemifumarate at 10 mg.Kg-1 level in rat; assay type: ADME, organism-based, Albino HAN:WIST; conditions: in vivo
[9] = % of radioactivity recovered as M9 from M2 in faeces following intravenous administration of [14C] aliskiren hemifumarate at 10 mg.Kg-1 level in rat; assay type: ADME, organism-based, Albino HAN:WIST, Feces; conditions: in vivo
[10] = % aliskiren recovered as metabolite M9 in plasma following 10 day repeated oral administration of [14C] aliskiren hemifumarate at 100 mg.Kg-1 level studied in rat; assay type: ADME, organism-based, Albino HAN:WIST; conditions: in vivo, 240 h
[11] = % aliskiren recovered as metabolite M9 in urine following 10 day repeated oral administration of [14C] aliskiren hemifumarate at 100 mg.Kg-1 level studied in rat; assay type: ADME, organism-based, Albino HAN:WIST; conditions: in vivo, 240 h
[12] = % aliskiren recovered as metabolite M9 in faeces following 10 day repeated oral administration of [14C] aliskiren hemifumarate at 100 mg.Kg-1 level studied in rat; assay type: ADME, organism-based, Albino HAN:WIST, Feces; conditions: in vivo, 240 h
[13] = % aliskiren hemifumarate recovered as M6 from M4 in urine following single oral dose of 300 mg [14C]SPP100 studied in healthy men; assay type: ADME, organism-based; conditions: human, in vivo, at 300 mg
[14] = % aliskiren hemifumarate recovered as M6 from M4 in faeces following single oral dose of 300 mg [14C]SPP100 studied in healthy men; assay type: ADME, organism-based, Feces; conditions: human, in vivo
[15] = % aliskiren hemifumarate recovered as M6 from M4 in urine and faeces following single oral dose of 300 mg [14C]SPP100 studied in healthy men; assay type: ADME, organism-based, Urine/Feces; conditions: human, in vivo, at 300 mg
[16] = % aliskiren recovered as M6 from M4 in bile following single intravenous administration of 10 mg.Kg-1 [14C] aliskiren hemifumarate in male rat; assay type: ADME, organism-based, HAN:WIST(SPF); conditions: in vivo
[17] = % aliskiren recovered as M6 from M4 in hydrolysed following single intravenous administration of 10 mg.Kg-1 [14C] aliskiren hemifumarate in male rat; assay type: ADME, organism-based, HAN:WIST(SPF), Bile; conditions: in vivo
[18] = % aliskiren recovered as M6 from M4 in urine following single intravenous administration of 10 mg.Kg-1 [14C] aliskiren hemifumarate in male rat; assay type: ADME, organism-based, HAN:WIST(SPF); conditions: in vivo
[19] = % aliskiren recovered as M6 from M4 of receiver rat following duodenal infusion of radioactivity through bile from donor rat treated with single intravenous administration of 10 mg.Kg-1 [14C] aliskiren hemifumarate; assay type: ADME, organism-based, HAN:WIST(SPF); conditions: in vivo
[20] = % of radioactivity recovered as M6 from M4 in plasma following oral administration of [14C] aliskiren hemifumarate at 100 mg.Kg-1 level in rat; assay type: ADME, organism-based, Albino HAN:WIST; conditions: in vivo
[21] = % of radioactivity recovered as M6 from M4 in urine following oral administration of [14C] aliskiren hemifumarate at 100 mg.Kg-1 level in rat; assay type: ADME, organism-based, Albino HAN:WIST; conditions: in vivo
[22] = % of radioactivity recovered as M6 from M4 in faeces following oral administration of [14C] aliskiren hemifumarate at 100 mg.Kg-1 level in rat; assay type: ADME, organism-based, Albino HAN:WIST, Feces; conditions: in vivo
[23] = % of radioactivity recovered as M6 from M4 in plasma following intravenous administration of [14C] aliskiren hemifumarate at 10 mg.Kg-1 level in rat; assay type: ADME, organism-based, Albino HAN:WIST; conditions: in vivo
[24] = % of radioactivity recovered as M6 from M4 in urine following intravenous administration of [14C] aliskiren hemifumarate at 10 mg.Kg-1 level in rat; assay type: ADME, organism-based, Albino HAN:WIST; conditions: in vivo
[25] = % of radioactivity recovered as M6 from M4 in faeces following intravenous administration of [14C] aliskiren hemifumarate at 10 mg.Kg-1 level in rat; assay type: ADME, organism-based, Albino HAN:WIST, Feces; conditions: in vivo
[26] = % aliskiren recovered as metabolite M6 in plasma following 10 day repeated oral administration of [14C] aliskiren hemifumarate at 100 mg.Kg-1 level studied in rat; assay type: ADME, organism-based, Albino HAN:WIST; conditions: in vivo, 240 h
[27] = % aliskiren recovered as metabolite M6 in urine following 10 day repeated oral administration of [14C] aliskiren hemifumarate at 100 mg.Kg-1 level studied in rat; assay type: ADME, organism-based, Albino HAN:WIST; conditions: in vivo, 240 h
[28] = % aliskiren recovered as metabolite M6 in faeces following 10 day repeated oral administration of [14C] aliskiren hemifumarate at 100 mg.Kg-1 level studied in rat; assay type: ADME, organism-based, Albino HAN:WIST, Feces; conditions: in vivo, 240 h
CYP2A6 [29] = target: T1, CYP2A6 (Homo sapiens, UniProt P11509); experiment: in vitro; conditions: probe coumarine
T1 sequence (P11509 whole entry): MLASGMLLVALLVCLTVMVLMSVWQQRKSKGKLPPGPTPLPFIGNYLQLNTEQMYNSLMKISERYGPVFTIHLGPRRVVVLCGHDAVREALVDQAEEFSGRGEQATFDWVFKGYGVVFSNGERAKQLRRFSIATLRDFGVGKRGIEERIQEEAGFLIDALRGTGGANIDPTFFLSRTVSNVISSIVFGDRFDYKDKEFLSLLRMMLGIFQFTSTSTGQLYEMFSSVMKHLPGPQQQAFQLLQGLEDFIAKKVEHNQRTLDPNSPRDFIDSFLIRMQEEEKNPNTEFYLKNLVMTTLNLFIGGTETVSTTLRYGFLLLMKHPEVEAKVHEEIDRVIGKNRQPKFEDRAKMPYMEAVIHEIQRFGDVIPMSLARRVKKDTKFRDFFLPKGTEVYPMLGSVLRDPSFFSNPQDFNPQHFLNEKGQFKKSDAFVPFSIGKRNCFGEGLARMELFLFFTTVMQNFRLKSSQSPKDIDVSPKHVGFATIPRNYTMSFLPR

CYP2A6 [30] = target: T1, CYP2A6; experiment: in vitro; conditions: probe coumarine; remark: listed apart in the source
CYP2A6 [31] = target: T1, CYP2A6; experiment: in vitro; conditions: probe coumarine; remark: listed apart in the source
CYP2C19 [32] = target: T2, CYP2C19 (Homo sapiens, UniProt P33261); experiment: in vitro; conditions: probe (S)-mephenytoin (50 uM)
Description: Inhibitory activity of 100 uM tranylcypromine on 49 Pmoles of cDNA-derived CYP2C19 enzyme in microsome prepared from human lymphoblastoid cell line

CYP2C19 [33] = target: T2, CYP2C19; experiment: in vitro; conditions: probe (S)-mephenytoin (50 uM); remark: listed apart in the source
Description: Inhibitory activity of 100 uM tranylcypromine on 34 Pmoles of cDNA-derived CYP2C19 enzyme in microsome prepared from human lymphoblastoid cell line

T2 sequence (P33261 whole entry): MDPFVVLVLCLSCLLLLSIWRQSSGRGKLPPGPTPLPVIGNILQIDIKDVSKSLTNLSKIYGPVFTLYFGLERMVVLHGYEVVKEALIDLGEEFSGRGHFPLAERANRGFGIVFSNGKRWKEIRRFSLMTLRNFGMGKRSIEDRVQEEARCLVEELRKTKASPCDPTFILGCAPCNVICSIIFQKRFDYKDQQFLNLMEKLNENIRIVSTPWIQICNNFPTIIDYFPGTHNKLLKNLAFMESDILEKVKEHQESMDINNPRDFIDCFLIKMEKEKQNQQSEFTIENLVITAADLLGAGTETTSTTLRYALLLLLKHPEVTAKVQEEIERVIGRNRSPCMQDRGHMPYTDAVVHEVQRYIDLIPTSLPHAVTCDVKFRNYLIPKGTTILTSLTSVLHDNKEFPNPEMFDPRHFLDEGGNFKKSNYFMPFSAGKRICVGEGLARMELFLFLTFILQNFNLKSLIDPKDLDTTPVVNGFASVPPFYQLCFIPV

Compound recovery [1]: OUTCOME = Not detected
Compound recovery [2]: OUTCOME = Not detected
Compound recovery [3]: OUTCOME = Not detected
SMILES: COCCCOc1cc(C[C@@H](C[C@H](N)[C@@H]2C[C@H](C(C)C)C(=O)O2)C(C)C)ccc1OC
Compound recovery [4]: OUTCOME = Not detected or not investigated
Compound recovery [5]: OUTCOME = Non-radiolabeled metabolite was observed by LC-MS
Compound recovery [6]: OUTCOME = Not detected or not investigated
Compound recovery [7]: OUTCOME = Not detected or not investigated
Compound recovery [8]: OUTCOME = Not detected or not investigated
Compound recovery [9]: OUTCOME = Not detected or not investigated
Compound recovery [10]: OUTCOME = Observed, VALUE = Minor amounts
Compound recovery [11]: OUTCOME = Observed, VALUE = Minor amounts
Compound recovery [12]: OUTCOME = Observed, VALUE = Minor amounts

Compound recovery [13]: < 0.1%
Compound recovery [14]: OUTCOME = Not detected
Compound recovery [15]: < 0.1%
Compound recovery [16]: 5%
Compound recovery [17]: OUTCOME = Not detected
Compound recovery [18]: 3.2%
Compound recovery [19]: 8.9%
Compound recovery [20]: > 2%
Compound recovery [21]: <= 2%
Compound recovery [23]: <= 2%
SMILES: COc1ccc(C[C@@H](C[C@H](N)[C@@H](O)C[C@H](C(=O)NCC(C)(C)C(N)=O)C(C)C)C(C)C)cc1O[C@@H]1O[C@H](CO)[C@@H](O)[C@H](O)[C@H]1O
Compound recovery [22]: OUTCOME = Not detected or not investigated
Compound recovery [24]: OUTCOME = Not detected or not investigated
Compound recovery [25]: OUTCOME = Not detected or not investigated
Compound recovery [26]: OUTCOME = Observed, VALUE = Minor amounts
Compound recovery [27]: OUTCOME = Observed, VALUE = Minor amounts
Compound recovery [28]: OUTCOME = Observed, VALUE = Minor amounts

SMILES: N[C@@H]1C[C@H]1c1ccccc1.N[C@H]1C[C@@H]1c1ccccc1 [TRANYLCYPROMINE]
inhibition at 100 µM (CYP2A6 [29]): 97%
inhibition at 100 µM (CYP2A6 [30]): 98%
inhibition at 100 µM (CYP2A6 [31]): 99%
inhibition at 100 µM (CYP2C19 [32]): 96%
inhibition at 100 µM (CYP2C19 [33]): 97%
